Assay [1] relates to triglyceride deposit-type atherosclerosis of the coronary artery. Put plainly: MCT dietary therapy: coronary artery CT evaluation of fat accumulated in coronary arteries. The format is in vivo, human. Here is the method:
A person with genetic ATGL (Adipose triglyceride lipase) deficiency. Since it was confirmed that the patient was suffering from triglyceride deposit-type atherosclerosis by coronary CT inspection, MCT dietary therapy was started. The patient ingested 6 to 9 g of tricaprin as the MCT per 1 day, 3 times a day after meals for 50 days.
Before the start of the MCT dietary therapy and after 50 days from the start of the MCT dietary therapy, normal coronary artery CT was performed to acquire a three-dimensional DICOM image of the left anterior descending branch. The samples were resampled in 0.1 mm^3 of voxels and layer-by-layer coloring was performed based on intra-voxel CT values. Smoothing was performed between voxels. The layer-by-layer coloring was performed as follows.
Light gray: between −25 HU to 0 HU (fat content is high) Middle gray 0 HU to 40 HU (fat content is medium) Dark gray: 40 HU to 125 HU (no fat) (iii) Results
A person who has suffered from refractory angina pectoris for years. Even when a combination treatment of a plurality of antianginal drugs and statins or the like was performed, the angina pectoris was rather exacerbated. Since it was confirmed that the patient was suffering from triglyceride deposit-type atherosclerosis by coronary CT inspection, MCT dietary therapy was started. The patient ingested 1.5 g of tricaprin as the MCT per 1 day, 3 times a day after meals for 4 years.
Before the start of the MCT dietary therapy and after 4 years from the start of the MCT dietary therapy, normal coronary artery CT was performed, and the layer-by-layer coloring of the inside of the left anterior descending branch was performed in the same manner as described in the case 1.

The subject of assay [2] is leucocytes (neutrophils) of the case 1 patient. Description: Ability of leucocytes to excrete Alexa Fluor 680-BMPP before and after tricaprin treatment. The class given is in vivo, human. Here is the method: Next, the abilities for taking up and for excreting the Alexa Fluor™ 680-BMPP were compared using whole blood collected from the patients in the case 1 described in the above 6-2. before and after the tricaprin treatment.
Preparation of the leucocyte and measurement of the abilities for taking up and for excreting the Alexa Fluor™ 680-BMPP using the leucocyte cells were performed according to the experimental examples.

Assay [3] concerns leucocytes (neutrophils, monocytes, lymphocytes). Description: Influence of excretion time on Alexa Fluor 680-BMPP excretion amount (FACS). The format is cell-based, human. The settings on record: leucocytes of two healthy individuals; 0.067 μM; 37° C.; histograms did not shift from 10 to 120 minutes. The procedure: 6 ml of each whole blood collected from two healthy individuals using the blood collection tube containing heparin was added with the HetaSep (Veritas Corporation) in an amount of one fifth of the whole blood, leucocytes were collected according to the manufacturer's instruction, and the cells were resuspended in 2.1 ml of the DMEM serum-free medium. Alexa Fluor™ 680-BMPP uptake ability and Alexa Fluor™ 680-BMPP excretion ability of the leucocytes were measured using 400 μl each as described below.
40 μl of the Alexa Fluor™ 680-BMPP was added to 400 μl of the cell resuspension so that a final concentration of the Alexa Fluor™ 680-BMPP was 0.067 μM, and a reaction for uptake the Alexa Fluor™ 680-BMPP was performed by standing at room temperature for 30 minutes. A sample for measurement immediately after the uptake was added with BD FACS Lysing Solution immediately after the reaction to be hemolyzed and then, subjected to FACS. […] FACS analysis was performed in the same manner as described in the experimental example 2, and for each of neutrophils, monocytes, and lymphocytes, fluorescence intensities at each excretion time were compared each other.

Assay [4] shares this test system. Put plainly: Uptake and excretion of Alexa Fluor 680-BMPP by leucocytes of healthy individuals and primary TGCV patients (FACS). The format is cell-based, human. The procedure:
5.5 ml of whole blood collected from healthy individuals and patients using the blood collection tube containing heparin was added with the leucocyte separating agent (HetaSep, Veritas Corporation) in an amount of one fifth of the whole blood, leucocytes were collected according to a manufacturer's instruction, and the cells were resuspended in 2.1 ml of DMEM medium without serum (hereinafter, DMEM serum-free medium). Alexa Fluor™ 680-BMPP uptake ability and Alexa Fluor™ 680-BMPP excretion ability of the leucocytes were measured using 400 μl each as described below.
40 μl of the Alexa Fluor™ 680-BMPP or 40 μl of the Alexa Fluor™ 680 was added to 400 μl of the cell resuspension so that a final concentration of the Alexa Fluor™ 680-BMPP or the Alexa Fluor™ 680 was 0.067 μM, and a reaction for uptake the fluorescence-labeled substance was performed by standing at room temperature for 30 minutes. A sample for measurement immediately after the uptake was added with BD FACS Lysing Solution immediately after the reaction to be hemolyzed and then, subjected to FACS. On the other hand, as for a sample for measurement of excretion, the Alexa Fluor™ 680-BMPP or the Alexa Fluor™ 680 was removed from the sample by centrifugation at room temperature, cells were resuspended in 500 μl of DMEM serum-free medium, and the cells were allowed to stand at 37° C. for 2 hours to be subjected to an excretion reaction of the taken Alexa Fluor™ 680-BMPP or Alexa Fluor™ 680, then BD FACS Lysing Solution was added, and the sample was subjected to FACS in the same manner as the sample immediately after the uptake. FACS analysis was performed in the same manner as described in the experimental example 2, and for each of neutrophils, monocytes, and lymphocytes, fluorescence intensity of the sample immediately after uptake was compared with fluorescence intensity of the sample for measurement of excretion.

Assay [5] has the same test system. Put plainly: Uptake of fluorescence-labeled BMPP by leucocytes in whole blood (FACS). The format is cell-based, human. Particulars: monocytes and lymphocytes, whole blood of healthy individual, 0.0074, 0.022, 0.067, 0.2 μM, room temperature 30 minutes. The procedure: Each 200 μl of whole blood collected from a healthy individual using a blood collection tube containing heparin was used as a sample. As a fluorescent-labeled BMPP-added group, the Alexa Fluor™ 680-BMPP prepared in the experimental example 1 was added to the samples so that a final concentration of the Alexa Fluor™ 680-BMPP was 0.0074 μM, 0.022 μM, 0.067 μM, and 0.2 μM, respectively. As a negative control group, Alexa Fluor™ 680 NHS Ester hydrolysate (hereinafter, simply referred to as Alexa Fluor™ 680) was added to the samples so that a final concentration of the Alexa Fluor™ 680 was 0.0074 μM, 0.022 μM, 0.067 μM, and 0.2 μM, respectively. […]
After the uptake is completed, 2 ml of BD FACS Lysing Solution (BD Biosciences) was added to the sample, and the mixture was allowed to stand at room temperature for 30 minutes to hemolyze erythrocytes, and then leucocytes were collected as precipitates by centrifugation at room temperature at 1500 rpm for 30 minutes, and resuspended in PBS to prepare a sample for FACS analysis. The FACS analysis was performed by preparing gates containing lymphocytes, monocytes, or neutrophils in advance by dot plots of forward-scattered light and side-scattered light using leucocytes prepared in the same manner without adding the Alexa Fluor™ 680-BMPP, and measuring the number of cells until […] cells were counted in the gate. […]

Turning to `CCCCCCCCCC(=O)OCC(COC(=O)CCCCCCCCC)OC(=O)CCCCCCCCC` [tricaprin], the “effect on triglyceride deposit-type atherosclerosis of the coronary artery (coronary CT)” value is “regression” in assay [1] (case 1: genetic ATGL deficiency, 6 to 9 g per day, 50 days) and “regression” in assay [1] (case 2: refractory angina pectoris, 1.5 g per day, 4 years). For the same compound, the “diameter of the blood flow site (coronary CT)” value in assay [1] (case 2, 1.5 g per day, 4 years) is recorded as “significantly increased”. Further, in assay [2] (case 1 patient leucocytes after tricaprin (MCT dietary therapy) treatment), the “ability for excreting the Alexa Fluor 680-BMPP in the patient after the treatment” value is on record as “restored to the same level as in healthy individuals”.
Take “15-phenyl-3-methylpentadenoic acid labeled with Alexa Fluor™ 680 [Alexa Fluor™ 680-BMPP]”: the “excretion time at which the taken Alexa Fluor 680-BMPP was sufficiently excreted (almost background)” value in assay [3] was determined as 10 min. Besides, the “ability to excrete the Alexa Fluor 680-BMPP, primary TGCV patient versus healthy individuals” value in assay [4] (leucocytes, overall conclusion) is reported as “lower”. For the same compound, the “ability to excrete the Alexa Fluor 680-BMPP (leftward shift of fluorescence intensity)” value in assay [4] (lymphocytes of healthy individuals, 0.067 μM, excretion 37° C. 2 hours) is reported as “demonstrated”. Also, the “ability to excrete the Alexa Fluor 680-BMPP compared to healthy individuals” value is on record as “reduced” in assay [4] (lymphocytes of primary TGCV patients, 0.067 μM, excretion 37° C. 2 hours) and “clearly reduced” in assay [4] (neutrophils of primary TGCV patients, 0.067 μM, excretion 37° C. 2 hours). Also, the “ability to excrete the Alexa Fluor 680-BMPP (leftward shift of histogram)” value in assay [4] (neutrophils of healthy individuals, 0.067 μM, excretion 37° C. 2 hours) is reported as “sufficiently demonstrated”. Also, the “ability for excreting the Alexa Fluor 680-BMPP compared to healthy individuals” value in assay [2] (leucocytes (neutrophils) of case 1 patient before the start of the treatment) is “clearly reduced”. In addition, in assay [5], the “uptake amount of the Alexa Fluor 680-BMPP (shift of fluorescence intensity histogram)” value was “concentration dependent increase”.

The record behind these values is patent US20230251278A1, “ACQUISITION METHOD OF VALUE RELATING TO TRIGLYCERIDE METABOLIC CAPACITY, PRESENTATION METHOD OF DISEASE INFORMATION, PRESENTATION METHOD OF DISEASE DIFFERENTIATION INFORMATION, PRESENTATION METHOD OF THERAPY EFFICACY INFORMATION, PRESENTATION METHOD OF THERAPEUTIC EFFECT INFORMATION, TEST REAGENT …” (OSAKA UNIVERSITY, priority 2020, published 2023).
